Broadly, the LD50 is the dose at which mortality reaches 50%.

This note sets out measurements from patent US6951887B2 (The Research Foundation of State University of New York, priority 1998, dated 2005).

One data set has as its system SW480 (Colon). In words: killing of cultured cells, SW480. Particulars: compound at two to fourfold above its threshold killing concentration. Also on record: key: “+” indicates that the cells were killed by treatment; “−” indicates that they were not; “+/−” indicates a slow marginal response seen only in a few special cases with fibroblasts experimentally transformed by introduction of the ras oncogene. Type of data set: cell-based. From the text:
(§1) Table 1: Summarized are the responses of cells in culture to killing by example members of the family of blocked lipoate derivatives that are the object of this invention as well as one control compound (dihydroxyoctanoic acid). At right is indicated the specific cell line followed by the tissue of origin of the cell line. Across the top are listed the specific compounds tested. Each blocked lipoate derivative was used at two to fourfold above its threshold killing concentration. [These concentrations range form 0.15 mM (60 ug/ml or 60 mg/kg) to 2.5 mM (800 ug/ml or 800 mg/kg) (see EXAMPLE 11).] […] “+/−” indicates a slow marginal response seen only in a few special cases with fibroblasts experimentally transformed by introduction of the ras oncogene (EXAMPLE 10).
(§2) First, each cell type to be tested was plated at low densities in the wells of a standard 6×24 well tissue culture plate. (Multiple wells are seeded for each cell type.)
(§3) Second, the cells were allowed to grow to moderate densities. Transformed cells are in contact and non-transformed cells are contact-inhibited under these conditions.
(§4) Third, the lipoate derivatives to be tested were added to individual wells. In these experiments each compound was added at two to fourfold above the threshold killing concentration for cancer cells (EXAMPLE 11).
(§5) Fourth, cells were monitored over the next several days.

For another data set, the system named is RD (Embryo). As to the kind of experiment: killing of cultured cells, RD. It counts as cell-based. Further details: key to cells killed by treatment: “+” indicates that the cells were killed by treatment; “−” indicates that they were not; “+/−” indicates a slow marginal response seen only in a few special cases with fibroblasts experimentally transformed by introduction of the ras oncogene.
From the text: as §1, §2, §3, §4, §5

For a further data set, the system named is A549 (Lung). In words: killing of cultured cells, A549. It counts as cell-based. Also on record: key to cells killed by treatment: “+” indicates that the cells were killed by treatment; “−” indicates that they were not; “+/−” indicates a slow marginal response seen only in a few special cases with fibroblasts experimentally transformed by introduction of the ras oncogene.
From the text: as §1, §2, §3, §4, §5

Another data set deals with HeLa (Cervix). In words: killing of cultured cells, HeLa. It counts as cell-based. Also on record: key to cells killed by treatment: “+” indicates that the cells were killed by treatment; “−” indicates that they were not; “+/−” indicates a slow marginal response seen only in a few special cases with fibroblasts experimentally transformed by introduction of the ras oncogene.
From the text: as §1, §2, §3, §4, §5

For a further data set, the system named is B16 (Skin). As to the kind of experiment: killing of cultured cells, B16. It counts as cell-based. Also on record: key: “+” indicates that the cells were killed by treatment; “−” indicates that they were not; “+/−” indicates a slow marginal response seen only in a few special cases with fibroblasts experimentally transformed by introduction of the ras oncogene. The following applies: compound at two to fourfold above its threshold killing concentration.
From the text: as §1, §2, §3, §4, §5

The subject of the next data set is Saos 2 (Bone). As to the kind of experiment: killing of cultured cells, Saos 2. It counts as cell-based. Also on record: key: “+” indicates that the cells were killed by treatment; “−” indicates that they were not; “+/−” indicates a slow marginal response seen only in a few special cases with fibroblasts experimentally transformed by introduction of the ras oncogene. Particulars: compound at two to fourfold above its threshold killing concentration.
From the text: as §1, §2, §3, §4, §5

In a further data set the test system is NIH 3T3 parental. As to the kind of experiment: killing of cultured cells, parental NIH 3T3. Type of data set: cell-based. The following applies: 120 ug/ml, ca. 24 hours of treatment.
From the text: as §1, §2
Second, the cells were allowed to grow to moderate densities. Transformed cells are in contact and non-transformed cells are contact-inhibited under these conditions. […]
as §5
NIH-3T3 cells are relatively normal, noncancerous cells. However, if an activated allele of the ras oncogene is introduced into these cells they become highly malignant (cancerous) as assessed by several assays (REFERENCE).

Another data set has as its system cancer cells in culture. As to the kind of experiment: threshold killing concentration and dose response in cultured cells. Type of data set: cell-based. From the text:
First, each compound killed cancer cells in culture at or above a relatively narrow, specific concentration range, but not below. The threshold concentrations given below represent the approximate center of this range which extended roughly two to threefold. […] Below these saturation ranges, sensitive cells survived and grew. They could be removed and replated to grow, apparently indefinitely, under these conditions. […] This was a highly unusual dose/response profile. The threshold killing concentrations (ranges) varied between individual compounds. Examples of these threshold killing concentrations were as follows: bis-benzoyl lipoate (EXAMPLE 3) 60 mg/liter (60 mg/kg), monoacetyl lipoate (EXAMPLE 4) 100 mg/liter (100 mg/kg); bis-acetyl lipoate (EXAMPLE 2) 600 mg/liter (600 mg/kg).
These changes were ultimately followed by cell death if treatment was continued. However, these morphological changes were reversed, and the cells recovered, if the lipoate derivative was removed during this initial exposure. As with the dose/response profile of the preceeding paragraph, this reversible induction of morphological change followed by commitment to cell death is highly idiosyncratic. The discovery that this behavior was shown by all tested members of the class of compounds that are the object of this invention was, again, very strong evidence that these compounds are, in fact, a functionally coherent class.

A further data set concerns HeLa cells. As to the kind of experiment: killing of HeLa cells with or without dichloroacetate (DCA). Type of data set: cell-based. The following applies: compound ca. twofold above threshold killing dose plus 5 mM DCA. On the procedure:
HeLa cells were plated at moderate densities and allowed to attach and grow for ca. 24 hours in a series of wells in a multi-well tissue culture plate. To individual wells of the first subset (control) were added bis-acetyl lipoate, mono-acetyl lipoate or bis-benzoyl lipoate—each at ca. twofold above the threshold killing dose (EXAMPLE 11). To an equivalent (experimental) subset of wells were added these same compounds at the same dose together with the simultaneous addition of DCA to 5 mM final concentration.

For another data set, the system named is Hep G2. As to the kind of experiment: killing of cultured cells, Hep G2. Type of data set: cell-based. Also on record: key to cells killed by treatment: “+” indicates that the cells were killed by treatment; “−” indicates that they were not; “+/−” indicates a slow marginal response seen only in a few special cases with fibroblasts experimentally transformed by introduction of the ras oncogene.
From the text: as §1, §2, §3, §4, §5

Another data set concerns LnCap (Prostate). In words: killing of cultured cells, LnCap. Type of data set: cell-based. Further details: key: “+” indicates that the cells were killed by treatment; “−” indicates that they were not; “+/−” indicates a slow marginal response seen only in a few special cases with fibroblasts experimentally transformed by introduction of the ras oncogene. Particulars: compound at two to fourfold above its threshold killing concentration.
From the text: as §1, §2, §3, §4, §5

A short description of data set [1]: nonspecific toxicity by intraperitoneal injection. The following applies: C57/BL, mouse, in vivo, ip. How it is done: (§6) (All studies described in this section were carried out by intraperitoneal (IP) injection into C57/BL mice.)
A further data set concerns C57/BL mice. As to the kind of experiment: nonspecific toxicity by intraperitoneal injection. Particulars: mouse, in vivo, ip. How it is done: as §6

Consider `O=C(O)CCCCC(CCSC(=O)c1ccccc1)SC(=O)c1ccccc1` (stereo not drawn) [bis-benzoyl lipoate, 6,8-bisbenzoylmercaptooctanoic acid], for which the “cells killed by treatment” value in the data set with SW480 (Colon) is “+”; in the data set on RD (Embryo) (RD, Embryo, compound at two to fourfold above its threshold killing concentration) it was “+”; in the data set on A549 (Lung) (A549, Lung, compound at two to fourfold above its threshold killing concentration), “+”; in the data set with HeLa (Cervix) (Cervix, compound at two to fourfold above its threshold killing concentration), “+”; in the data set on B16 (Skin), “+”; in the data set on Saos 2 (Bone), “+”. The “cells killed by treatment” value with Hep G2 (Hep G2, compound at two to fourfold above its threshold killing concentration) is “+”; in the data set on LnCap (Prostate), “+”. The “cell killing, embryonic cancer cells (FIG. 1)” value with RD (Embryo) (120 ug/ml, ca. 48 hours) is reported as “efficiently killed”. Also, in the data set with A549 (Lung) (120 ug/ml, ca. 48 hours), the “cell killing, lung cancer cells (FIG. 1)” value was “efficiently killed”. For the same compound, the “time by which all cancer cells are killed” value in the data set with HeLa (Cervix) (conditions of FIG. 3) is 48 to 60 h. In addition, in the data set with NIH 3T3 parental, the “effect on noncancerous parental NIH3T3 cells (FIG. 2)” value was “unaffected”. Also, the “effective dose in cell culture” value in the data set with cancer cells in culture came out at 60 µg/mL. This compound came in with a threshold killing concentration in the data set on cancer cells in culture (approximate center of a range extending two to threefold) of 60 mg/L. Further, the “speed of cell killing with DCA relative to compound alone” value in the data set on HeLa cells is reported as “approximately twvice as rapidly”. Besides, in the data set with Hep G2 (120 ug/ml, ca. 48 hours), the “cell killing, liver cancer cells (FIG. 1)” value was “efficiently killed”. In data set [1], this compound came in with an LD50 of roughly 1000 mg/kg. In the data set on C57/BL mice, the maximum well-tolerated dose result is on record as “ca. 500 mg/kg”.
